Experiments:
[1] = test system: primary rat neuronal-glial cell cultures; assay: Seahorse assay (OCR/ECAR), acute 1 h nutrient pre-incubation, resting or seizure-like conditions; format: cell-based; conditions: 0.25 mM and 1 mM pyruvate in low Mg2+ medium vs low Mg2+ medium without pyruvate
Procedure: A Seahorse assay was performed on primary rat neuronal-glial cell cultures to determine the impact of pyruvate and citric acid on glycolytic rates and lactate delivery, mitochondrial respiration and total (glycolytic and mitochondrial) ATP production.
Rat cortical cells were isolated from embryonic day 18 embryos using a combination of enzymatic and mechanical dissociation of brain cortical rat tissue. Immediately after dissociation, the cells were seeded at a density of 500′000 cells per mL in 96-well plates and grown at 37° C. for two weeks from day in vitro (DIV) 0 until DIV14 in Neurobasal medium supplemented with 2% (v/v) B27, 0.8 mM Magnesium (Mg2+), 25 mM glucose and 1% (v/v) Penicillin/Streptomycin. During this time neuronal axons grew out and formed synaptic contacts. In addition, glial cells, foremost astrocytes, grew and formed contacts with neurons. The incubation in 25 mM glucose accelerated the differentiation and network growth of neurons.
From DIV14 until DIV17, the cells were incubated in Neurobasal medium supplemented with 2% (v/v) B27, 0.8 mM Mg2+, 5 mM glucose and 1% (v/v) Penicillin/Streptomycin. The switch from high to low glucose was done to approach the low intracerebral glucose concentration of the human brain and create a more physiological metabolic environment.
The switch from 5 mM to 1 mM glucose matched the glucose concentrations in the human brain. Meanwhile the switch from high (0.8 mM) to low (0.1 mM) Mg^2+ increases the electrical firing frequency of neurons because Mg2+ is an inhibitor of excitatory NMDA-type ionotropic glutamate receptors, which account for most of the neuronal firing in this cell culture model. The increase in neuronal firing caused by incubation in 0.1 mM Mg^2+ increases the energy production of neurons and glial cells as reflected in the increase in basal respiration (FIG. 1B and E). After 1 hour of pre-incubation in the Seahorse medium containing the nutrients, the oxygen consumption rate [OCRs] and extracellular acidification rate [ECARs] of the neuroglial culture were measured in the Seahorse assay.
(§1) The oxygen consumption rates (OCRs) and extracellular acidification rates (ECARs) of cells seeded in 96-well plates were monitored in real time at 37° C. in unbuffered Hanks Balanced Salt Solution (HBSS). The OCRs represent foremost mitochondrial respiration, and to a minor extent non-mitochondrial respiration. The ECARs relate foremost to the acidification of the medium with lactate produced through glycolysis and secreted by the cells into the medium (Table 1).
(§2) During the Seahorse run, both the OCRs and ECARs were measured simultaneously at baseline and following the injection of compounds by the Seahorse instrument (Table 1). HBSS was supplemented with glucose from the start and no glucose was injected through the Seahorse instruments. Measurements were repeated three times at baseline and three times after each compound injection.
(§3) After the initial baseline measurement, oligomycin (OM) was injected. OM blocks mitochondrial ATP synthase (complex V) and therefore decreases mitochondrial respiration. The OCRs after OM injection are due to the mitochondrial proton leak. They enable to determine whether the test nutrients impact the proton leak. The difference in OCRs at baseline and after OM injection is the amount of oxygen used for mitochondrial ATP synthesis at baseline. From this difference in OCR, the mitochondrial ATP production rates are calculated.
After OM, uncoupling agent carbonyl cyanide-p- trifluoromethoxyphenyl-hydrazon [FCCP] was injected which collapses the proton gradient across the inner mitochondrial membrane established during respiration and required for ATP synthesis. The cells attempt to restore the proton gradient following FCCP injection by maximizing respiration. […]

[2] = test system: primary rat neuronal-glial cell cultures; assay: as above; format: cell-based
[3] = test system: primary mouse neuroglial cultures; assay: Cell death by high content imaging (Hoechst/NeuN nuclear shrinkage) after chronic hyperstimulation; format: cell-based; conditions: 1 mM; for dead neuron count (neuron death): FIG. 10F/11F
Procedure: To determine whether pyruvate and citrate protect neurons and glial cells from cell death induced by chronic electrical hyperstimulation. To assess protection from cell death induced by repeated hyperstimulation, primary mouse neuroglial cultures were assayed. Neuroglial cell cultures were prepared and grown until DIV14 as described above. From DIV14 until DIV17 they were switched to NBM containing B27, low (2.5 mM) glucose, and low (0.1 mM) Mg^2+ or high (0.8 mM) Mg^2+. Incubation in low (0.1 mM) Mg^2+ medium increases the neuronal firing rates, thus creating a state of chronic hyperstimulation. The test nutrients (pyruvate or citrate) were supplied through the medium from DIV14 until DIV17. On DIV17, the cell nuclei were stained with the Hoechst dye and co-immunolabelled for NeuN, a protein found only in the nuclei of neurons. The neuronal and non-neuronal cell nuclei were scored for nuclear shrinkage, a hallmark of cell death, by high content imaging.
To assess cell death by high content imaging the cells were fixed on DIV17 in 1% formaldehyde, permeabilized with ethanol and incubated with a rabbit polyclonal IgG antibody against NeuN, a neuron-specific protein localized to the nucleus, followed by detection with a secondary anti-rabbit IgG antibody linked to a red fluorescent label. Neuronal and non-neuronal cell nuclei were then counterstained with the blue fluorescent nuclear dye Hoechst. The nuclei were counted by a high content imager based on signal intensity and size. A cut-off value was applied to exclude objects of low signal intensity considered noise. Then, cut-off values were applied to exclude objects with an area below 30 μM^2 considered cell debris and objects with an area above 300 μM^2 considered cell clumps. A boundary of 60 μM^2 was set to distinguish between nuclei from alive and dead cells. Objects areas of 30 μM^2 to 60 μM^2 were counted as nuclei from dead cells, while object areas of 60 μM^2 to 300 μM^2 were counted as nuclei from alive cells. The counting was done at 20-fold magnification on a fixed number of optical fields per well. The counts of nuclei from dead neurons or dead cells were related to the number of alive neurons or alive cells, respectively, in the same well.
Neuroglial cell cultures were supplemented with 1 mM citrate from DIV14 until DIV17. On DIV17, total cell death and neuron-specific cell death were quantified by high content imaging. The total number of Hoechst positive objects or NeuN positive objects prior to applying cut-off values for the signal intensity and the area size was equal between the different groups (FIG. 10 A, D).

neuroglial cell cultures = assay: Seahorse assay (OCR/ECAR), acute effects under seizure- and ketogenic diet-like conditions; format: cell-based, rat; conditions: HBSS, 0.1 mM Mg2+, 1 mM glucose, 500 μM bHB, 1 mM pyruvate, 1 mM citrate as added, vs control medium
Procedure: as §1, §2, §3
After OM, uncoupling agent carbonyl cyanide-p- trifluoromethoxyphenyl-hydrazon [FCCP] was injected which collapses the proton gradient across the inner mitochondrial membrane established during respiration and required for ATP synthesis. The cells attempt to restore the proton gradient following FCCP injection by maximizing respiration. The OCRs measured after FCCP injection therefore represent the maximal respiratory capacity of the mitochondria in the sample and enable to determine whether test nutrients impact the maximal respiratory capacity of the mitochondria.
Finally, Antimycin A, a complex III inhibitor, and Rotenone, a complex I inhibitor, were co-injected, both blocking the respiratory chain at different sites to entirely shut down mitochondrial respiration and determine the non-mitochondrial respiration. The latter is necessary to correct all OCRs and obtain the mitochondrial OCRs.
The ECARs were measured simultaneously at baseline and after OM and FCCP injection. The glycolytic ATP production was calculated from the baseline ECARs. The subsequent injection of OM pushed the cells to maximize their glycolytic ATP production to compensate for the loss in mitochondrial ATP production inflicted by OM. The further addition of FCCP drove mitochondrial respiration to a maximum and this eventually led to a further increase in glycolytic rates providing pyruvate into the TCA cycle to sustain maximal respiration. Therefore, the ECARs after FCCP injection were used to determine the maximum glycolytic capacity of the cells.
To assess the effect of citrate and pyruvate under seizure- and ketogenic diet-like conditions a batch of cells was switched one hour prior to the Seahorse run to HBSS medium (which is a nutrient deprived culture medium) containing low (1 mM) glucose, 500 μM bHB and low (0.1 mM) Mg^2+, 1 mM citrate or 1 mM pyruvate (FIG. 6). The ketone p-hydroxybutyrate (bHB) was included during the Seahorse run at a concentration of 500 μM to mimic the nutrient environment of a ketogenic diet. This bHB concentration corresponds to the circulating bHB concentration of a mild ketogenic diet such as the Modified Atkins Diet.
For the Seahorse assay that was run under seizure- and ketogenic diet like-conditions the cells were then incubated in HBSS medium containing low (0.1 mM) Mg^2+ and one of the following additions: • i) 1 mM glucose (control medium), • ii) 500 μM bHB, • iii) 500 μM bHB plus 1 mM citrate, • iv) 500 μM bHB plus 1 mM pyruvate or • v) 500 μM bHB with 1 mM citrate plus 1 mM pyruvate. […]

Structure (SMILES) | increase in basal respiration ([1]; FIG. 1B) | increase in oligomycin-induced proton leak ([1]; FIG. 1C) | increase in glycolytic rates at baseline ([1]; FIG. 2A) | increase in glycolytic rates after FCCP injection ([1]; FIG. 2C) | increase in total (mitochondrial and glycolytic) ATP production rates ([2]; 0.25 mM and 1 mM pyruvate in low (0.1 mM) Mg2+ medium vs low Mg2+ medium without pyruvate, FIG. 1A) | increase in FCCP-driven maximal respiratory capacity ([2]; 0.25 mM and 1 mM pyruvate in low Mg2+ medium vs low Mg2+ medium without pyruvate, FIG. 1D) | increase in dead cell counts from high Mg2+ to low Mg2+ medium ([3]; DIV14-DIV17, chronic hyperstimulation, FIG. 10C/11C) [%] | dead cell counts ([3]; DIV14-DIV17, high (0.8 mM) Mg2+ medium, FIG. 10C/11C) [%] | dead neuron count (neuron death) ([3]; DIV14-DIV17, high Mg2+ medium) [%] | dead cell counts ([3]; DIV14-DIV17, low (0.1 mM) Mg2+ medium, FIG. 10C/11C) [%] | dead neuron count (neuron death) ([3]; DIV14-DIV17, low Mg2+ medium) [%] | change in basal glycolytic ATP production (neuroglial cell cultures; FIG. 6A) | change in total (mitochondrial and glycolytic) ATP production (neuroglial cell cultures; FIG. 6A) | change in basal (mitochondrial) respiration (neuroglial cell cultures; FIG. 6B) | change in FCCP-driven maximal respiratory capacity (neuroglial cell cultures; FIG. 6D) | change in basal glycolysis (neuroglial cell cultures; FIG. 7A) | change in FCCP-driven maximal glycolytic capacity (neuroglial cell cultures; FIG. 7C)
CC(=O)C(=O)O [pyruvate] | 30-40% | 10-15% | 15-20% | 20-30% | 400-500% | 200-250% | ~1 | ~19 | −1.5 | ~20 | ~1.4 |  |  |  |  |  | 
CC(O)CC(=O)O (centres unmarked) [bHB, b-hydroxybutyrate] |  |  |  |  |  |  |  |  |  |  |  | did not alter | did not impact | did not impact | did not impact | did not alter | did not alter
